Marks after values point to notes of the source that are not given here.
Experiments:
SV40 promoter = SV40 promoter activity, luciferase assay in SW480/SV40-Luc cells; assay type: cell-based, human; conditions: for IC50: Homo sapiens, SW480, read-out: SV40 promoter inhibitory activity IC50; for SV40 promoter inhibitory activity IC50: SW480/SV40-Luc cells, luciferase
Summary of the method: (§1)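 Stable SW480 colon cancer lines carried luciferase driven by a 5× NFκB response element or by the SV40 promoter. Compound was added 1 h before 50 ng/mL TNFα, followed by 4 h culture at 37 °C; luminescence was read and IC50 taken as 50% inhibition of induced luciferase expression.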

NFκB = assay: Inhibitory action on the NFκB activity, luciferase assay in SW480/NRE-Luc cells; assay type: cell-based, human; conditions: for IC50: Homo sapiens, SW480, read-out: NFκB inhibitory activity IC50; for NFκB inhibitory activity IC50: SW480/NRE-Luc cells, compound 1 h then 50 ng/mL TNFα 4 h, luciferase
Summary of the method: as §1

[1] = system: human colon cancer HCT116 cells; assay: Antitumor effect in mice transplanted with human colon cancer HCT116 cells; assay type: in vivo, mouse; conditions: intraperitoneal days 1-5 and 8-12, tumor weight day 21, BALB/c nude mice
Text: The antitumor effect of the phenanthroindolizidine alkaloid compound of the present invention in vivo was studied using mice transplanted with human colon cancer HCT116 cells. HCT116 cells were transplanted subcutaneously in the inguinal region of male 6-week-old BALB/c nude mice (2×10^6 cells/mouse). On days 1 to 5 and on days 8 to 12 after the time at which the estimated tumor volume obtained by ½ab^2 (a and b indicate the major axis and the minor axis of tumor, respectively) reached approximately 100 mm^3 (day 0), the compound of the present invention was administered (intraperitoneal administration). To a control group, a 5% glucose solution, a solvent, was administered. On day 21, tumor was excised and measured for its weight, and subsequently a tumor proliferation-inhibition rate IR (%) was calculated.

[2] = system: human non-small cell lung cancer A549 cells; assay: Inhibitory action on the proliferation of A549 cells; assay type: cell-based; conditions: 96 hours, TetraColor ONE; for IC50: Homo sapiens, A549
Summary of the method: (§2)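 Cells seeded overnight (SW480 2000/well in 10% FBS/RPMI1640; A549, HT-29 1000/well in 10% FBS DMEM or DMEM F12 HAM), then compound-treated at 37 °C, 5% CO2 for 48 h (SW480) or 96 h (A549, HT-29). Viable cells counted by TetraColor ONE; IC50 for 50% proliferation inhibition.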

[3] = system: human colon cancer SW480 cells; assay: Inhibitory action on the proliferation of SW480 cells; assay type: cell-based; conditions: 48 hours, TetraColor ONE; for IC50: Homo sapiens, SW480
Summary of the method: as §2

[4] = system: human colon cancer HT-29 cells; assay: Inhibitory action on the proliferation of HT-29 cells; assay type: cell-based; conditions: 96 hours, TetraColor ONE; for IC50: Homo sapiens, HT-29
Summary of the method: as §2

Solubility of the salts = assay: Solubility of the salts
Text: In in vivo studies, each compound was used in the form of a salt.

[5] = system: mice transplanted with mouse fibrosarcoma Meth A cells; assay: Animal toxicity test; assay type: in vivo; conditions: intravenous days 1, 5, 9, observed three weeks
Experimental: Also, the toxicity of known phenanthroindolizidine alkaloid compounds, namely (12aS,13S)-6,7-dimethoxy-9,10,11,12,12a,13-hexahydro-9a-aza-cyclopenta[b]triphenylene-3,13-diol (known compound 1; refer to WO01/023384) and (12aS,13S)-3,6,7-trimethoxy-9,10,11,12,12a,13-hexahydro-9a-aza-cyclopenta[b]triphenylene-13-ol (known compound 2; refer to Planta Med., 2002, 68: 186-188), was simultaneously studied. To a control group, a physiological saline solution, a solvent, was administered. As a result, as shown in the following Tables 35 and 36, all the mice survived in a group administered with the compound of the present invention.

[6] = system: mouse fibrosarcoma Meth A cells; assay: Antitumor effect in mice transplanted with mouse fibrosarcoma Meth A cells; assay type: in vivo; conditions: intravenous on days 1, 5, 9, tumor weight day 21, BALB/c mice
Experimental: The antitumor effect of the phenanthroindolizidine alkaloid compound of the present invention in vivo was studied using mice transplanted with mouse fibrosarcoma Meth A cells. Meth A cells were transplanted subcutaneously in the inguinal region of male 7-week-old BALB/c mice (2.5×10^5 cells/mouse). Subsequently, on days 1, 5, and 9, the compound of the present invention was intravenously administered. To a control group, physiological saline, a solvent, was administered. On day 21 after the cell transplantation, tumor was excised and measured for its weight, and subsequently a tumor growth-inhibition rate IR (%) was obtained by the following formula. Tumor growth-inhibition rate IR (%)=(1−the weight of the tumor in an administration group/the weight of the tumor in a control group)×100

[7] = aqueous solution of 5% glucose, saline or isotonic

SMILES | IC50 (SV40 promoter) [ng/mL] | IC50 (NFκB) [ng/mL] | Tumor growth inhibition rate IR ([1]; total dose 50 mg/kg) | Tumor growth inhibition rate IR ([1]; total dose 100 mg/kg) | IC50 [2] [ng/mL] | IC50 [3] [ng/mL] | IC50 [4] [ng/mL] | solubility (Solubility of the salts; [7]) [mg/mL] | SV40 promoter inhibitory activity IC50 (SV40 promoter) [ng/mL] | NFκB inhibitory activity IC50 (NFκB) [ng/mL] | solubility (Solubility of the salts; in an aqueous solution of 5% glucose, salt form) [mg/mL] | Tumor growth inhibition rate IR ([1]; total dose 200 mg/kg) | A549 proliferation inhibitory action IC50 [2] [ng/mL] | SW480 proliferation inhibitory action IC50 [3] [ng/mL] | HT-29 proliferation inhibitory action IC50 [4] [ng/mL] | Mortality rate ([5]; total dose 25 mg/kg) | Mortality rate ([5]; total dose 50 mg/kg) | Tumor growth inhibition rate IR ([6]; total dose 25 mg/kg) [%] | Tumor growth inhibition rate IR ([6]; total dose 50 mg/kg)
COc1cc2c3c(c4ccc(NC(C)=O)cc4c2cc1OC)C[C@@H]1CCCN1C3.CS(=O)(=O)O [Compound 56, N-((S)-6,7-dimethoxy-9,10,11,12,12a,13-hexahydro-9a-aza-cyclopenta[b]triphenylene-3-yl)-acetamide methanesulfonate] | > 10 | 2.9 | 39.1** % | 68.9** % | 2.2 | 4.8 | 2.4 | – | – | – | – | – | – | – | – | – | – | – | –
COc1cc2c3c(c4cccc(O)c4c2cc1OC)[C@H](O)[C@@H]1CCCN1C3.CS(=O)(=O)O [Compound 43, (12aS,13S)-6,7-dimethoxy-9,10,11,12,12a,13-hexahydro-9a-aza-cyclopenta[b]triphenylene-4,13-diol methanesulfonate] | > 1000 | 2.7 | – | – | 4.4 | 6.2 | 100 | 11.2 | – | – | – | – | – | – | – | – | – | – | –
COc1cc2c3c(c4ccc(OC(C)=O)cc4c2cc1OC)C[C@@H]1CCCN1C3.CS(=O)(=O)O [Compound 45, acetic acid(S)-6,7-dimethoxy-9,10,11,12,12a,13-hexahydro-9a-aza-cyclopenta[b]triphenylene-3-yl ester methanesulfonate] | – | – | – | – | – | – | – | – | >100 | 0.41 | 9.7 | 34.7** % | 0.64 | 0.76 | 1.5 | – | – | – | –
COc1cc2c3c(c4cccc(O)c4c2cc1OC)C[C@@H]1CCCN1C3.Cl [Compound 40, (S)-6,7-dimethoxy-9,10,11,12,12a,13-hexahydro-9a-aza-cyclopenta[b]triphenylene-4-ol hydrochloride] | > 1000 | 2.4 | – | – | 3.3 | 4 | 67.9 | – | – | – | – | – | – | – | – | 0/5 | 0/5 | 25.8 | 45.1* %
COc1cc2c3c(c4ccc(F)cc4c2cc1OC)C[C@@H]1CCCN1C3.CS(=O)(=O)O [Compound 44, (S)-3-fluoro-6,7-dimethoxy-9,10,11,12,12a,13-hexahydro-9a-aza-cyclopenta[b]triphenylene methanesulfonate] | > 1000 | 36.8 | – | 30.7** % | 6 | 64.9 | 12.8 | 10.3 | – | – | – | – | – | – | – | – | – | – | –
COc1cc2c3c(c4ccc(OC(=O)c5ccco5)cc4c2cc1OC)[C@H](O)[C@@H]1CCCN1C3.Cl [Compound 20, furan-2-carboxylic acid(12aS,13S)-13-hydroxy-6,7-dimethoxy-9,10,11,12,12a,13-hexahydro-9a-aza-cyclopenta[b]triphenylene-3-yl ester hydrochloride] | – | – | – | – | – | – | – | – | >100 | 0.46 | – | – | 0.42 | 0.67 | 0.76 | 0/5 | 0/5 | 36.7 | 53.0* %
COC(=O)CCC(=O)Oc1ccc2c3c(c4cc(OC)c(OC)cc4c2c1)CN1CCC[C@H]1C3.CS(=O)(=O)O [Compound 46, succinic acid(S)-6,7-dimethoxy-9,10,11,12,12a,13-hexahydro-9a-aza-cyclopenta[b]triphenylene-3-yl ester methyl ester methanesulfonate] | – | – | – | – | – | – | – | – | >1000 | 0.13 | – | 34.6** % | 1.2 | 0.36 | 2.1 | – | – | – | –

— patent publication US8569327B2, “Phenanthroindolizidine derivative and NFκB inhibitor containing same as active ingredient” (Kabushiki Kaisha Yakult Honsha, priority 2008, dated 2013)
